In ChEMBL document CHEMBL1157125, “Modifications of C-2 on the pyrroloquinoline template aimed at the development of potent herpesvirus antivirals with improved aqueous solubility” (Bioorg Med Chem Lett, 2010):

Assays:
Assay type in all cases: ADME, organism-based
[1] = Clearance in rat; details: in vivo
[2] = Volume of distribution at steady state in rat; details: in vivo, read-out: Vdss
[3] = Oral bioavailability in rat; details: in vivo
[4] = Half life in rat; details: in vivo

For O=C(NCc1ccc(Cl)cc1)c1cn2c(CCO)cc3cc(CN4CCOCC4)cc(c1=O)c32, the clearance [1] was 41.7 mL/min/kg, the Vd [2] was 1.7 L/kg and the bioavailability [3] was 66%. For the same compound, the half-life [4] was 48 min.
